Reference: US11802110B2, “2-amino-N-(arylsulfinyl)-acetamide compounds as inhibitors of bacterial aminoacyl-tRNA synthetase” (priority 2016, dated 2023)
In brackets after ≈: the same amount, converted by molar mass. Read-outs that look alike come from different tables or passages of the source.

Tests used:
E. Coli LeuRS = E. Coli LeuRS (Escherichia coli (strain K12), UniProt P07813); assay: Study 2 - Isothermal titration calorimetry (ITC); assay type: binding; conditions: 25° C., pH 7.5, mean ± SD
E. Coli LeuRS, sequence (P07813 whole entry): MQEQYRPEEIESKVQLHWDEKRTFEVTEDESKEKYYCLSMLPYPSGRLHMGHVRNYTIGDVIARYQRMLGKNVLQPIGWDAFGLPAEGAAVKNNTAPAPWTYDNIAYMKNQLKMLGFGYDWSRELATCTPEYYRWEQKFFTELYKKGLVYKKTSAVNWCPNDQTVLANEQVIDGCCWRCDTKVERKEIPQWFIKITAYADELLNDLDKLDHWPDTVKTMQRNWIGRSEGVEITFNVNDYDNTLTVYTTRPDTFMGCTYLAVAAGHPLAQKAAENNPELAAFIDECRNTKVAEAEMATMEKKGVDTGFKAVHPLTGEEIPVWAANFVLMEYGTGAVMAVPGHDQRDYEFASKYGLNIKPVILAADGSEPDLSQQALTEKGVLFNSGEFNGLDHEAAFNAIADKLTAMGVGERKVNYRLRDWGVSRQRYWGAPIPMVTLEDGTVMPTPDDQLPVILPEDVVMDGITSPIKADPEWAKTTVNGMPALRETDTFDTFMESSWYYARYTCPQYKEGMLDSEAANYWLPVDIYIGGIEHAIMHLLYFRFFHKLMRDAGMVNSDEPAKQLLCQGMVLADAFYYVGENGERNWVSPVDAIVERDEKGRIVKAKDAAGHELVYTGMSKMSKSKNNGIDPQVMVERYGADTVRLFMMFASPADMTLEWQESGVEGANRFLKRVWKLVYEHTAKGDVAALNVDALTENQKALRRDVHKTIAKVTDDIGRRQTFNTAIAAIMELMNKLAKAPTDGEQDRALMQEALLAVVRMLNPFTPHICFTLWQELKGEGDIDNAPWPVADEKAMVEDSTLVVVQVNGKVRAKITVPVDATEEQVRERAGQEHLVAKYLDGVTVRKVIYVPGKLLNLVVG
Procedure: Escherichia coli BL21(DE3) cells transformed with plasmid pQE-60 containing the open-reading frame sequence of one targeted aaRS (i.e., LeuRS) were induced with 1 mM IPTG (isopropyl β-D-1-thiogalactopyranoside) for 3 hours at 37° C. Bacterial cells were harvested and lysed with 20 mM HEPES (4-(2-hydroxyethyl)-1-piperazinylethane-sulfonic acid) (pH 7.5), 300 mM NaCl, 15 mM imidazole and 1 mM DTT (1,4-dithio-D-threitol). The pathogenic aaRS was first purified by nickel affinity standard chromatography. The eluted protein was concentrated and then further purified by gel filtration using 50 mM HEPES (pH 7.5), 150 mM NaCl buffer.
ITC studies were carried out using a Microcal ITC200 instrument (GE Healthcare). Protein concentration was determined by spectrophotometry by measuring the absorbance at 280 nm using a theoretical molar extinction coefficient of 169,140 M^−1cm^−1. Ligand stock solutions were prepared in DMSO at 62.5 mM concentration. The titrations were performed at 25° C. with 7.5-100 μM E. Coli LeuRS in 50 mM HEPES, 150 mM NaCl, pH 7.5 buffer containing 1% DMSO (v/v). The protein solution in the 280 μL sample cell was titrated with the inhibitor solution (diluted to 75-3000 μM in the same buffer as the protein) using 1-2 μL injections every 120-140 seconds. All titrations were repeated at least two times. To correct for heats of dilution and mixing, the final baseline consisting of small peaks of identical size at the end of each experiment was subtracted. The experimental data were fitted to a theoretical titration curve (one site model) using MicroCal Origin 7 SR4 software.
Note that Compounds R-4.1 and S-4.1 (in Table 15, below) correspond to Compounds V-i and V-ii (in Tables 13 and 14, above), respectively.

[1] = Human cell viability (cytotoxicity), ATP levels by CellTiter-Glo; assay type: cell-based; conditions: HepG2 cells (ATCC HB-8065), 24 hours incubation, read-out: IC50 (μg/mL), Cytotoxicity in HepG2 ATCC HB-8065 Cell Line
Procedure: Compounds were assessed for potential non-specific cytotoxic effects against a human hepatic cell line (HepG2 ATCC HB-8065). 96-well plates were seeded with HepG2 cells in concentration of 15,000 cells per well in 100 μL of MEM growth media completed with 1% NEAA and 1% sodium pyruvate. Border wells were filled with 100 μL of sterile PBS. Two days upon cells incubation, the compounds were added. Compound dilutions were prepared in 96-well V-bottom plate in pure DMSO. Growth media from 5 plates were aspirated and replaced with 98.7 μL of fresh growth media. 1.28 μL of compounds prepared in V-bottom plates were transferred with multichannel pipette into test plates (78.1× dilution). Final DMSO concentration was 1.28% per well. In control wells, 1.28 μL of DMSO was added in 98.7 μL of media. Compounds were tested in duplicates. Cells were incubated with compounds for 24 hours when cell viability was assessed by measuring ATP levels. ATP levels were measured by adding 50 μL of CellTiter-Glo reagent to each well and after 5 minutes of incubation luminescence was measured with SpectraMax i3. The potential effect of tested compounds on cell viability was determined by comparing the signal obtained in presence of different concentrations of the compounds with those obtained in the presence of DMSO only. The potential effects were then calculated and presented as IC50 values (μg/mL).

[2] = system: Enterobacter cloacae B1966 clinical isolate; assay: Study 4 - MIC by broth micro-dilution (CLSI); assay type: cell-based
Procedure: (§1) Minimum Inhibitory Concentrations (MICs) were determined by the broth micro-dilution method performed according to Clinical Laboratory Standards Institute guidelines. For testing, 5 mg/mL DMSO solutions were prepared by dissolving solids in DMSO. Standard antibiotics were prepared according to CLSI guidelines as 5 mg/mL stock solutions. Upon DMSO stock solutions preparation, the working solutions in MH media were prepared by adding 38.4 μL of stock solution to 1461.6 μL of MH media. Out of these working solutions 100 μL were transferred to wells in the third column of 96-well assay plates. Assay plates were previously filled with 50 μL of MH media in all wells except for the wells in the third column. Upon compounds and antibiotics addition, 50 μL was transferred from the third to the fourth column, then from the fourth to the fifth and so on.
(§2) MIC value was determined by visual inspection of bacterial growth within 96-well plates. The first column in which there was no visible growth of bacteria was determined as MIC value for compound or antibiotic tested in that particular row. ATCC strains were used as reference strains for which there is a determined value of MIC values for standard antibiotics. The assay is considered valid when MIC values for standard antibiotics are within CLSI designated range for ATCC strain tested.

[3] = system: Klebsiella pneumoniae ATCC 700603; assay: Study 4 - MIC by broth micro-dilution (CLSI); assay type: cell-based
Procedure: as §1, §2

[4] = system: Pseudomonas aeruginosa ATCC 27853; assay: Study 4 - MIC by broth micro-dilution (CLSI); assay type: cell-based
Procedure: as §1, §2

[5] = system: Haemophilus influenzae ATCC 49247; assay: Study 4 - MIC by broth micro-dilution (CLSI); assay type: cell-based; conditions: G = H. influenzae ATCC 49247
Procedure: as §1, §2

[6] = system: Acinetobacter baumannii B1931 clinical isolate; assay: Study 4 - MIC by broth micro-dilution (CLSI); assay type: cell-based
Procedure: as §1, §2

[7] = system: Escherichia coli ATCC 25922; assay: Study 4 - MIC by broth micro-dilution (CLSI); assay type: cell-based
Procedure: as §1, §2

[8] = system: Escherichia coli ATCC 25922 TolC deficient mutant (E. coli EFFLUX del); assay: microbe, parasite or virus in culture; assay type: cell-based
Procedure: as §1, §2

[9] = Klebsiella pneumoniae, ATCC700603
[10] = Pseudomonas aeruginosa, ATCC27853
[11] = Haemophilus influenzae, ATCC49247, read-out: MIC

| SMILES | Kd (E. Coli LeuRS) [nM] | ΔG (E. Coli LeuRS) [kcal/mol] | ΔH (E. Coli LeuRS) [kcal/mol] | IC50 at 24 h [1] [µg/mL] | MIC ([2]; Enterobacter cloacae) [µg/mL] | MIC [3, 9] [µg/mL] | MIC [4, 10] [µg/mL] | MIC [5, 11] [µg/mL] | MIC ([6]; Acinetobacter baumannii) [µg/mL] | MIC ([7]; Escherichia coli, ATCC25922) [µg/mL] | MIC ([8]; Escherichia coli, ATCC25922) [µg/mL] | other results |
| --- | --- | --- | --- | --- | --- | --- | --- | --- | --- | --- | --- | --- |
| C=Cc1cccc([S+]([O-])NC(=O)C(N)CC(C)C)c1 (stereo not drawn) [4.16] | 27.2 ± 8.44 | -10.34 ± 0.19 | -4.89 ± 0.08 | > 64 | 32 (≈ 114 µM) | > 64 | > 64 | 32 (≈ 114 µM) | 32 (≈ 114 µM) | 8 (≈ 28.5 µM) | 8 (≈ 28.5 µM) | – |
| CNc1cccc([S+]([O-])NC(=O)C(N)CC(C)C)c1 (stereo not drawn) [4.22] | 34.5 ± 0.76 | -10.17 ± 0.02 | -4.27 ± 0.19 | > 64 | 32 (≈ 113 µM) | 64 (≈ 226 µM) | > 64 | > 64 | 32 (≈ 113 µM) | 16 (≈ 56.5 µM) | 16 (≈ 56.5 µM) | – |
| CC(C)CC(N)C(=O)N[S+]([O-])c1ccccc1C#N (stereo not drawn) [4.30] | – | – | – | 32.5 (≈ 116 µM) | 32 (≈ 115 µM) | 32 (≈ 115 µM) | 32 (≈ 115 µM) | 8 (≈ 28.6 µM) | 8 (≈ 28.6 µM) | 16 (≈ 57.3 µM) | 16 (≈ 57.3 µM) | – |
| C[C@@H](O)[C@H]1C(=O)N2C(C(=O)O)=C(S[C@@H]3CN[C@H](C(=O)N(C)C)C3)[C@H](C)[C@H]12 [Meropenem] | – | – | – | – | – | – | – | – | – | – | – | MIC ([2]; C = Enterobacter cloacae B1966): 0.5 µg/mL (≈ 1.3 µM); MIC ([3]; D = KI. pneumoniae ATCC 700603): 0.5 µg/mL (≈ 1.3 µM); MIC ([4]; E = P. aeruginosa ATCC 27853): >64 µg/mL; MIC [5]: 4 µg/mL (≈ 10.4 µM); MIC ([6]; F = A. baumannii B1931): 8 µg/mL (≈ 20.9 µM); MIC ([7]; A = E. coli ATCC 25922): 0.5 µg/mL (≈ 1.3 µM); MIC ([8]; B = E. coli EFFLUX del): 0.5 µg/mL (≈ 1.3 µM) |
| CC(C)CC(N)C(=O)N[S+]([O-])c1cc(Cl)cc(Cl)c1 (stereo not drawn) [4.36] | – | – | – | 44 (≈ 136 µM) | > 64 | > 64 | > 64 | > 64 | > 64 | 64 (≈ 198 µM) | 64 (≈ 198 µM) | – |
| CC(C)CC(N)C(=O)N[S+]([O-])c1ccc(F)c(Cl)c1 (stereo not drawn) [4.37] | – | – | – | > 64 | 64 (≈ 209 µM) | > 64 | > 64 | 32 (≈ 104 µM) | 64 (≈ 209 µM) | 8 (≈ 26.1 µM) | 8 (≈ 26.1 µM) | – |
| CC(C)CC(N)C(=O)N[S+]([O-])c1cccc(-c2ccn(C)n2)c1 (stereo not drawn) [4.26] | – | – | – | > 64 | > 64 | > 64 | > 64 | > 64 | > 64 | 64 (≈ 191 µM) | 64 (≈ 191 µM) | – |
| COc1cccc([S+]([O-])NC(=O)C(N)CC(C)C)c1 (stereo not drawn) [4.14] | 4.02 ± 0.38 | -11.45 ± 0.06 | -12.35 ± 0.04 | > 64 | 32 (≈ 113 µM) | 16 (≈ 56.3 µM) | 64 (≈ 225 µM) | 8 (≈ 28.1 µM) | 32 (≈ 113 µM) | 8 (≈ 28.1 µM) | – | – |
| CC(C)CC(N)C(=O)N[S+]([O-])c1cccc(Br)c1 (stereo not drawn) [4.15] | 10.6 ± 0.39 | -10.88 ± 0.03 | -10.74 ± 0.16 | > 64 | 32 (≈ 96 µM) | 16 (≈ 48 µM) | 64 (≈ 192 µM) | 8 (≈ 24 µM) | 64 (≈ 192 µM) | 8 (≈ 24 µM) | – | – |
| CC(C)CC(N)C(=O)N[S+]([O-])c1cccc(C#N)c1 (stereo not drawn) [4.19] | 3.35 ± 0.48 | -11.56 ± 0.09 | -8.49 ± 0.38 | > 64 | 8 (≈ 28.6 µM) | 4 (≈ 14.3 µM) | > 64 | 8 (≈ 28.6 µM) | 64 (≈ 229 µM) | 2 (≈ 7.16 µM) | – | – |
| CC(C)(O/N=C(\C(=O)N[C@@H]1C(=O)N2C(C(=O)[O-])=C(C[n+]3ccccc3)CS[C@H]12)c1csc(N)n1)C(=O)O [Ceftazidime] | – | – | – | – | – | – | – | – | – | – | – | MIC ([2]; C = Enterobacter cloacae B1966): 0.5 µg/mL (≈ 0.915 µM); MIC ([3]; D = KI. pneumoniae ATCC 700603): >64 µg/mL; MIC ([4]; E = P. aeruginosa ATCC 27853): >64 µg/mL; MIC [5]: 16 µg/mL (≈ 29.3 µM); MIC ([6]; F = A. baumannii B1931): 2 µg/mL (≈ 3.66 µM); MIC ([7]; A = E. coli ATCC 25922): 0.25 µg/mL (≈ 0.457 µM); MIC ([8]; B = E. coli EFFLUX del): 0.25 µg/mL (≈ 0.457 µM) |
| CC[C@H]1OC(=O)[C@H](C)[C@@H](O[C@H]2C[C@@](C)(OC)[C@@H](O)[C@H](C)O2)[C@H](C)[C@@H](O[C@@H]2O[C@H](C)C[C@H](N(C)C)[C@H]2O)[C@](C)(O)C[C@@H](C)CN(C)[C@H](C)[C@@H](O)[C@]1(C)O [Azithromycin] | – | – | – | – | – | – | – | 2 (≈ 2.67 µM) | – | – | 0.5 (≈ 0.668 µM) | MIC ([2]; C = Enterobacter cloacae B1966, read-out: MIC): 16 µg/mL (≈ 21.4 µM); MIC ([3]; Klebsiella pneumoniae, ATCC700603, D = KI. pneumoniae ATCC 700603, read-out: MIC): 32 µg/mL (≈ 42.7 µM); MIC ([4]; Pseudomonas aeruginosa, ATCC27853, E = P. aeruginosa ATCC 27853, read-out: MIC): 32 µg/mL (≈ 42.7 µM); MIC ([6]; Acinetobacter baumannii, F = A. baumannii B1931, read-out: MIC): 16 µg/mL (≈ 21.4 µM); MIC ([7]; Escherichia coli, ATCC25922, A = E. coli ATCC 25922, read-out: MIC): 4 µg/mL (≈ 5.34 µM) |
